Marks after values point to notes of the source that are not given here.
What was measured:
[1] = test system: Keratinocytes; assay: Osmolar protection: cell vitality by MTT after hyperosmotic stress; format: cell-based; conditions: D-Sorbitol 200 mM, 0.06%
Protocol: Keratinocytes were cultured in an appropriate culture medium. Then, cells were exposed to hyperosmolar shock induced by D-Sorbitol 200 mM. […] The osmoprotector effect of the products is estimated by quantifying the cellular survival. MTT Method is used: the measure of the survival is made at T0, T24 h and T48 h after the beginning of the stress. An analysis of the variances is realized on the data. In case of identity of the variances, a test of Student for matched series is then realized on the averages.

[2] = test system: keratin K10; assay: Synthesis of keratin 10 by keratinocytes (fluorescence image analysis); format: cell-based, human; conditions: 14 days; for Synthesis of keratin 10, Fluorescence: HaCat, calcium-poor medium
Protocol: HaCat cells were cultured in the presence or absence of hydroxymethionine-Ca, 3-aminopropanesulfonic Acid alone, and both compounds in a calcium-poor culture medium for 14 days. The incubation time was rather long to enable the keratinocytes to pursue differentiation up to a late stage, thus enabling detection of the emergence of keratin K10. Quantification was conducted by fluorescence image analysis using 1 specific fluorescent probe (anti-keratin monoclonal antibody (Monosan) for keratin K10).

[3] = test system: filaggrin; assay: Filaggrin synthesis by keratinocytes (fluorescence-image analysis); format: cell-based, human; conditions: for Filaggrin synthesis, Fluorescence: Table 3, HaCat; for Filaggrin synthesis, Fluorescence / Filaggrin synthesis, Fluorescence, result per 106 cells: calcium-deficient medium; for Filaggrin synthesis, Fluorescence / Filaggrin synthesis, Fluorescence, result per 106 cells / increase in filaggrin synthesis on the control value: 14 days; for Filaggrin synthesis, Fluorescence, result per 106 cells: Table 2, HaCat
Protocol: HaCat cells were cultured to confluence, in a deficient medium in calcium, in the presence or absence of hydroxymethionine-Ca for 14 days. The culture period was rather long in order to enable the keratinocytes to pursue differentiation up to a rather late stage in order to detect the emergence of filaggrin. Quantification was conducted by fluorescence-image analysis after labeling filaggrin with a specific probe (polyclonal antibody, Santa-Cruz). […]

[4] = test system: Human HaCat keratinocytes; assay: Stimulation of keratinocyte proliferation (Hoescht DNA labeling); format: cell-based; conditions: 14 days; for Keratinocyte proliferation vs. control cell proliferation: n = 3
Protocol: The stimulation of cell growth can be readily measured by uptake of a fluorescent probe that intercalates between DNA bases (Hoescht method). There is a proportional relationship between the quantity of fluorescent DNA taken up and the number of cells. […] Cells and products were incubated during 14 days (37° C./5% CO2), the mediums being renewed at regular intervals. Then lawns were rinsed and broke before being labeled by means of the colouring agent inserting of the DNA HOESCHT 33258. The intensity of the labeling is proportional to the quantity of DNA of the cellular samples. A curve of calibration allows to correlate the intensity of the labeling to the number of cells.

[5] = test system: HaCat cells; assay: Intracellular lipid synthesis (red oil staining of lipid vesicles); format: cell-based, human; conditions: 14 days; for Formation of lipid vesicles, Red-oil staining, result per 106 cells: HaCat
Protocol: The intracellular lipid vesicles characterize a late phase of differentiation. HaCat cells were cultured in the presence or absence of hydroxymethionine-Ca for 14 days. The incubation duration was rather long in order to enable the keratinocytes to pursue differentiation up to a relatively late stage.
Quantification was conducted by image analysis after red oil staining of the lipid vesicles.

[6] = test system: transglutaminase; assay: Transglutaminase mRNA by quantitative RT-PCR; format: cell-based, human; conditions: 8 days; for Transglutaminase mRNA, Ct, result per 106 cells: HaCat
Protocol: HaCat cells were cultured in the presence or absence of hydroxymethionine-Ca for 8 days. The quantitative RT-PCR method used on the mRNA for transglutaminase is sensitive and yielded results as of 8 days of culture. Quantification consisted in analysis of the cycle threshold (Ct) parameter, which reflects the amplification power used to obtain a detectable signal.
Amplification is exponantial and of order 1.7 (recopying effectiveness for each cycle).

[7] = test system: Normal Human Keratinocyte (KHN) cells; assay: Genes expression profile by DNA array on human keratinocyte culture; format: cell-based
Protocol: The genes expression profile modulated by hydroxymethionine was studied on human keratinocyte culture, cultured in the presence or absence of hydroxymethionine-Ca by DNA array studies allowing the detection of the main genes.
Normal Human Keratinocyte (KHN) cells were cultured to confluence before receiving 5×10E-3% hydroxymethionine or 5×10E-2% hydroxymethionine diluted in the culture medium. The negative controls are medium without hydroxymethionine. The KHN were incubated (37° C./5% CO2) at different times before that the culture was stopped to allow the extraction of the total RNA. Then, the quantitation of the mRNA of interest is allowed by the use of ADN biochip and quantified by means of software of interpretations of the fluorescent signals recorded by the sensors.

[8] = concentration 0.02% (mix: each)
[9] = concentration 0.05% (mix: each)

Q: `NCCCS(=O)(=O)O` [3-aminopropanesulfonic acid] was tested. Which “Variation of the number of cells with regard to the control after a hyperosmotic stress (MTT)” value (“Variation of the number of cells” for short) ([1]; T0) did it give?
A: +8%

Q: What about the “Variation of the number of cells” value ([1]; T24 h) of the same compound?
A: +180%

Q: And the “Variation of the number of cells” value ([1]; T48 h)?
A: +247%

Q: What about the “differentiating effect, keratin 10” value [2] of the same compound?
A: devoid of differentiating effect

Q: And the “Synthesis of keratin 10, Fluorescence” value ([2]; 0.02%)?
A: 0.1 +/− 0.05 arbitrary unit

Q: And the “Synthesis of keratin 10, Fluorescence” value ([2]; 0.05%)?
A: <0.1 arbitrary unit

Q: What about the “Synthesis of keratin 10, Fluorescence” value ([2]; 0.06%) of the same compound?
A: 0.1 +/− 0.06 arbitrary unit

Q: What about the “Filaggrin synthesis, Change (%) vs control” value ([3]; Table 3, 14 days, 0.02%) of the same compound?
A: 0.8 X

Q: What about the “Filaggrin synthesis, Change (%) vs control” value ([3]; Table 3, 14 days, 0.05%) of the same compound?
A: X 1

Q: And the “Filaggrin synthesis, Change (%) vs control” value ([3]; Table 3, 14 days, 0.06%)?
A: 0.8 X

Q: And the “Filaggrin synthesis, Fluorescence” value ([3]; 0.02%)?
A: 1.2 +/− 0.6 arbitrary unit

Q: What about the “Filaggrin synthesis, Fluorescence” value ([3]; 0.05%) of the same compound?
A: 1.5 +/− 0.7 arbitrary unit

Q: And the “Filaggrin synthesis, Fluorescence” value ([3]; 0.06%)?
A: 1.2 +/− 0.6 arbitrary unit

Q: What about the “effect on cell proliferation” value ([4]; 0.02% and 0.05%) of the same compound?
A: no stimulant effect

Q: And the “Keratinocyte proliferation vs. control cell proliferation” value [4, 8]?
A: 0%

Q: What about the “Keratinocyte proliferation vs. control cell proliferation” value [4, 9] of the same compound?
A: 0%

Q: `CSCCC(O)C(=O)O` (centres unmarked) [Hydroxymethionine-Ca (AHMC), 2-hydroxy-4-(thiomethyl)butanoic acid] was tested. Which “Variation of the number of cells” value ([1]; T0) did it give?
A: +54%

Q: And the “Variation of the number of cells” value ([1]; T24 h)?
A: +108%

Q: And the “Variation of the number of cells” value ([1]; T48 h)?
A: +112%

Q: What about the “Synthesis of keratin 10, Change vs control” value (“Synthesis … Change vs control” for short) ([2]; 0.02%) of the same compound?
A: X 45

Q: What about the “Synthesis … Change vs control” value ([2]; 0.05%) of the same compound?
A: X 57

Q: And the “Synthesis … Change vs control” value ([2]; 0.06%)?
A: X 44

Q: What about the “Synthesis of keratin 10, Fluorescence” value ([2]; 0.02%) of the same compound?
A: 4.0 arbitrary unit

Q: What about the “Synthesis of keratin 10, Fluorescence” value ([2]; 0.05%) of the same compound?
A: 5.1 +/− 1.3 arbitrary unit

Q: What about the “Synthesis of keratin 10, Fluorescence” value ([2]; 0.06%) of the same compound?
A: 3.9 +/− 1.7 arbitrary unit

Q: And the “Formation of lipid vesicles, Change (%) vs control” value (“Formation … Change (%) vs control” below) ([5]; 0.015%)?
A: +77%

Q: And the “Formation … Change (%) vs control” value ([5]; 0.03%)?
A: +58%

Q: What about the “Formation … Change (%) vs control” value ([5]; 0.06%) of the same compound?
A: +66%

Q: And the “Formation of lipid vesicles, Red-oil staining, result per 106 cells” value (shortened to “Formation of lipid vesicles … per 106 cells”) ([5]; 0.015%)?
A: 2.8 ± 0.3 arbitrary unit

Q: What about the “Formation of lipid vesicles … per 106 cells” value ([5]; 0.03%) of the same compound?
A: 2.5 ± 0.7 arbitrary unit

Q: And the “Formation of lipid vesicles … per 106 cells” value ([5]; 0.06%)?
A: 2.6 ± 0.6 arbitrary unit

Q: What about the “Filaggrin synthesis, Change (%) vs control” value ([3]; Table 2, 14 days, 0.015%) of the same compound?
A: +379%

Q: What about the “Filaggrin synthesis, Change (%) vs control” value ([3]; Table 2, 14 days, 0.03%) of the same compound?
A: +1072%

Q: And the “Filaggrin synthesis, Change (%) vs control” value ([3]; Table 2, 14 days, 0.06%)?
A: +943%

Q: And the “Filaggrin synthesis, Fluorescence, result per 106 cells” value (“Filaggrin synthesis … per 106 cells” for short) ([3]; 0.015%)?
A: 1.9 ± 1.4 arbitrary unit

Q: And the “Filaggrin synthesis … per 106 cells” value ([3]; 0.03%)?
A: 4.6 ± 3.1 arbitrary unit

Q: What about the “Filaggrin synthesis … per 106 cells” value ([3]; 0.06%) of the same compound?
A: 4.1 ± 3.5 arbitrary unit

Q: What about the “Filaggrin synthesis, Change (%) vs control” value ([3]; Table 3, 14 days, 0.02%) of the same compound?
A: 3.3 X

Q: What about the “Filaggrin synthesis, Change (%) vs control” value ([3]; Table 3, 14 days, 0.05%) of the same compound?
A: 3.4 X

Q: What about the “Filaggrin synthesis, Change (%) vs control” value ([3]; Table 3, 14 days, 0.06%) of the same compound?
A: 2.7 X

Q: What about the “Filaggrin synthesis, Fluorescence” value ([3]; 0.02%) of the same compound?
A: 5.0 arbitrary unit

Q: What about the “Filaggrin synthesis, Fluorescence” value ([3]; 0.05%) of the same compound?
A: 5.2 arbitrary unit

Q: And the “Filaggrin synthesis, Fluorescence” value ([3]; 0.06%)?
A: 4.2 arbitrary unit

Q: And the “increase in filaggrin synthesis on the control value” ([3]; concentration equivalent to 0.06%)?
A: ≤ 10 fold

Q: And the “increase in filaggrin synthesis on the control value” ([3]; lowest concentration)?
A: 3.7 fold

Q: What about the “production of filaggrine” value ([3]; used concentrations, 14 days after contact) of the same compound?
A: strongly stimulates

Q: And the “Transglutaminase mRNA, Change (%) vs control” value ([6]; 0.015%)?
A: +322%*

Q: What about the “Transglutaminase mRNA, Change (%) vs control” value ([6]; 0.03%) of the same compound?
A: +661%*

Q: And the “Transglutaminase mRNA, Change (%) vs control” value ([6]; 0.06%)?
A: +814%*

Q: What about the “increase in mRNA coding for transglutaminase” value ([6]; dose-dependent) of the same compound?
A: 8 fold

Q: And the “Transglutaminase mRNA, Ct, result per 106 cells” value ([6]; 0.015%)?
A: 23.7 ± 0.3 amplification unit

Q: And the “Transglutaminase mRNA, Ct, result per 106 cells” value ([6]; 0.03%)?
A: 22.9 ± 0.1 amplification unit

Q: And the “Transglutaminase mRNA, Ct, result per 106 cells” value ([6]; 0.06%)?
A: 22.5 ± 0.3 amplification unit

Q: And the “Keratinocyte proliferation vs. control cell proliferation” value [4, 8]?
A: 223%

Q: What about the “Keratinocyte proliferation vs. control cell proliferation” value [4, 9] of the same compound?
A: 170%

Q: What about the “properties shown by the gene expression study” value [7] of the same compound?
A: proliferative, pro-differentiation and proteinogenic properties but also DNA repairing properties

Q: What about the “activation of the gene HK2 involved in the proliferation” value ([7]; 5×10E-3% or 5×10E-2%) of the same compound?
A: marked activation

Q: What about the “activation of the gene endothelin 1 involved in the cellular differentiation” value ([7]; 5×10E-3% or 5×10E-2%) of the same compound?
A: marked activation

Q: And the “activity of the gene CACNA1C (subunit alpha 1 of the voltage-dependent calcium channel)” value ([7]; 5×10E-3% or 5×10E-2%)?
A: increased activity

Q: And the “activity of the gene for RYR (ryanodine receptor)” value ([7]; 5×10E-3% or 5×10E-2%)?
A: increased activity

Q: What about the “differentiation activities (ornithine decarboxylase, keratins, involucrin, intermediate filaments, claudin genes)” value ([7]; 5×10E-3% or 5×10E-2%) of the same compound?
A: strongly expressed

Q: And the “gene TGD (thymidine DNA glycolase)” value ([7]; 5×10E-3% or 5×10E-2%)?
A: activated
